Columns and labels:
corn = assay: Test Example 5: effect on crop by foliage application, plastic box (symbol c); format: in vivo; conditions: 320 g/ha, 3 weeks after application
Method in brief: (§1)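 Seeds were sown in spots in sterilized diluvial soil held in a plastic box 21 cm × 13 cm × 7 cm deep, covered with about 1.5 cm of soil, and grown in a greenhouse at 25° C. to 30° C.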

[1] = test system: Echinochloa crus-galli var. crus-galli; assay: Test Example 5: herbicidal effect by foliage application, plastic box (symbol H); format: in vivo; conditions: 320 g/ha, 3 weeks after application
Method in brief: (§2)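 Post-emergence spray; diluvial soil (sterilized), ~1.5 cm seed cover; greenhouse 25–30° C; 14-day-old plants; water-diluted emulsion at predetermined dose; visual score at 3 wk post-treatment.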

Avena fatua = assay: Test Example 5: herbicidal effect by foliage application, plastic box (symbol I); format: in vivo; conditions: 320 g/ha, 3 weeks after application
Method in brief: as §2

Setaria viridis = assay: Test Example 5: herbicidal effect by foliage application, plastic box (symbol G); format: in vivo; conditions: 320 g/ha, 3 weeks after application
Method in brief: as §2

Abutilon theophrasti = assay: Test Example 5: herbicidal effect by foliage application, plastic box (symbol M); format: in vivo; conditions: 320 g/ha, 3 weeks after application
Method in brief: as §2

soybean = assay: Test Example 5: effect on crop by foliage application, plastic box (symbol d); format: in vivo; conditions: 320 g/ha, 3 weeks after application
Method in brief: as §1

Alopecurus myosuroides = assay: Test Example 5: herbicidal effect by foliage application, plastic box (symbol J); format: in vivo; conditions: 320 g/ha, 3 weeks after application
Method in brief: as §2

rapeseed = assay: Test Example 5: effect on crop by foliage application, plastic box (symbol g); format: in vivo; conditions: 320 g/ha, 3 weeks after application
Method in brief: as §1

Lolium multiflorum Lam. = assay: Test Example 5: herbicidal effect by foliage application, plastic box (symbol K); format: in vivo; conditions: 320 g/ha, 3 weeks after application
Method in brief: as §2

Digitaria ciliaris = assay: Test Example 5: herbicidal effect by foliage application, plastic box (symbol F); format: in vivo; conditions: 320 g/ha, 3 weeks after application
Method in brief: as §2

Amaranthus retroflexus = assay: Test Example 5: herbicidal effect by foliage application, plastic box (symbol N); format: in vivo; conditions: 320 g/ha, 3 weeks after application
Method in brief: as §2

Apera spica-venti = assay: Test Example 5: herbicidal effect by foliage application, plastic box (symbol L); format: in vivo; conditions: 320 g/ha, 3 weeks after application
Method in brief: as §2

wheat = assay: Test Example 5: effect on crop by foliage application, plastic box (symbol e); format: in vivo; conditions: 320 g/ha, 3 weeks after application
Method in brief: as §1

Stellaria media = assay: Test Example 5: herbicidal effect by foliage application, plastic box (symbol P); format: in vivo; conditions: 320 g/ha, 3 weeks after application
Method in brief: as §2

rice plant = assay: Test Example 5: effect on crop by foliage application, plastic box (symbol b); format: in vivo; conditions: 320 g/ha, 3 weeks after application
Method in brief: as §1

beet = assay: Test Example 5: effect on crop by foliage application, plastic box (symbol f); format: in vivo; conditions: 320 g/ha, 3 weeks after application
Method in brief: as §1

Veronica persica = assay: Test Example 5: herbicidal effect by foliage application, plastic box (symbol R); format: in vivo; conditions: 320 g/ha, 3 weeks after application
Method in brief: as §2

Structure (SMILES): CON=C(C)CC1CC(O)=C(c2c(C)cc([N+](=O)[O-])cc2C)C1=O (stereo not drawn) [6-032]
- c: corn, effect on crop grade (corn): 0 (Herbicidal ratio of 5% or lower (almost no effect))
- H: Echinochloa crus-galli var. crus-galli, herbicidal effect grade [1]: 4 (Herbicidal ratio of 70% or higher and lower than 90%)
- I: Avena fatua, herbicidal effect grade (Avena fatua): 0 (Herbicidal ratio of 5% or lower (almost no effect))
- G: Setaria viridis, herbicidal effect grade (Setaria viridis): 3 (Herbicidal ratio of 40% or higher and lower than 70%)
- M: Abutilon theophrasti, herbicidal effect grade (Abutilon theophrasti): 0 (Herbicidal ratio of 5% or lower (almost no effect))
- d: soybean, effect on crop grade (soybean): 0 (Herbicidal ratio of 5% or lower (almost no effect))
- J: Alopecurus myosuroides, herbicidal effect grade (Alopecurus myosuroides): 0 (Herbicidal ratio of 5% or lower (almost no effect))
- g: rapeseed, effect on crop grade (rapeseed): 0 (Herbicidal ratio of 5% or lower (almost no effect))
- K: Lolium multiflorum Lam., herbicidal effect grade (Lolium multiflorum Lam.): 0 (Herbicidal ratio of 5% or lower (almost no effect))
- F: Digitaria ciliaris, herbicidal effect grade (Digitaria ciliaris): 4 (Herbicidal ratio of 70% or higher and lower than 90%)
- N: Amaranthus retroflexus, herbicidal effect grade (Amaranthus retroflexus): 0 (Herbicidal ratio of 5% or lower (almost no effect))
- L: Apera spica-venti, herbicidal effect grade (Apera spica-venti): 0 (Herbicidal ratio of 5% or lower (almost no effect))
- e: wheat, effect on crop grade (wheat): 0 (Herbicidal ratio of 5% or lower (almost no effect))
- melting point: 181 to 183 °C
- P: Stellaria media, herbicidal effect grade (Stellaria media): 0 (Herbicidal ratio of 5% or lower (almost no effect))
- b: directly sowed rice plant, effect on crop grade (rice plant): 0 (Herbicidal ratio of 5% or lower (almost no effect))
- f: beet, effect on crop grade (beet): 0 (Herbicidal ratio of 5% or lower (almost no effect))
- R: Veronica persica, herbicidal effect grade (Veronica persica): 0 (Herbicidal ratio of 5% or lower (almost no effect))

— patent publication US11000033B2, “Ketone or oxime compound, and herbicide” (NISSAN CHEMICAL CORPORATION, priority 2014, dated 2021)
